Tested on: NOMO1
Experiment: cell viability relative to DMSO control; higher = less cytotoxic
Conditions: 48 h
How it was run: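 NOMO1 or SEM cells were plated at 500 cells/well and P12-Ichikawa cells at 1000 cells/well in 1536-well plates (5 μl), after each leukemia line had been adapted for at least four passages in each medium. Pin dosing delivered library compounds in DMSO at 11 threefold concentrations, 47 μM to 0.79 nM. CellTiter-Glo One luminescence was read after 48 h at 37°C. Viability is reported as a per-plate percentage of DMSO wells, with cell-free wells as background.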

[1] = HPLM + 10% dialyzed FBS, 0.000781 µM
[2] = HPLM + 10% dialyzed FBS, 0.00234 µM
[3] = HPLM + 10% dialyzed FBS, 0.00702 µM
[4] = HPLM + 10% dialyzed FBS, 0.0211 µM
[5] = HPLM + 10% dialyzed FBS, 0.0632 µM
[6] = HPLM + 10% dialyzed FBS, 0.19 µM
[7] = HPLM + 10% dialyzed FBS, 0.569 µM
[8] = HPLM + 10% dialyzed FBS, 1.71 µM
[9] = HPLM + 10% dialyzed FBS, 5.12 µM
[10] = HPLM + 10% dialyzed FBS, 15.4 µM
[11] = HPLM + 10% dialyzed FBS, 46.1 µM
[12] = RPMI 5 mM glucose + 10% FBS, 0.000781 µM
[13] = RPMI 5 mM glucose + 10% FBS, 0.00234 µM
[14] = RPMI 5 mM glucose + 10% FBS, 0.00702 µM
[15] = RPMI 5 mM glucose + 10% FBS, 0.0211 µM
[16] = RPMI 5 mM glucose + 10% FBS, 0.0632 µM
[17] = RPMI 5 mM glucose + 10% FBS, 0.19 µM
[18] = RPMI 5 mM glucose + 10% FBS, 0.569 µM
[19] = RPMI 5 mM glucose + 10% FBS, 1.71 µM
[20] = RPMI 5 mM glucose + 10% FBS, 5.12 µM
[21] = RPMI 5 mM glucose + 10% FBS, 15.4 µM
[22] = RPMI 5 mM glucose + 10% FBS, 46.1 µM
[23] = RPMI 5 mM glucose + 10% dialyzed FBS, 0.000781 µM
[24] = RPMI 5 mM glucose + 10% dialyzed FBS, 0.00234 µM
[25] = RPMI 5 mM glucose + 10% dialyzed FBS, 0.00702 µM
[26] = RPMI 5 mM glucose + 10% dialyzed FBS, 0.0211 µM
[27] = RPMI 5 mM glucose + 10% dialyzed FBS, 0.0632 µM
[28] = RPMI 5 mM glucose + 10% dialyzed FBS, 0.19 µM
[29] = RPMI 5 mM glucose + 10% dialyzed FBS, 0.569 µM
[30] = RPMI 5 mM glucose + 10% dialyzed FBS, 1.71 µM
[31] = RPMI 5 mM glucose + 10% dialyzed FBS, 5.12 µM
[32] = RPMI 5 mM glucose + 10% dialyzed FBS, 15.4 µM
[33] = RPMI 5 mM glucose + 10% dialyzed FBS, 46.1 µM

Row | Structure (SMILES) | cell viability [1] | cell viability [2] | cell viability [3] | cell viability [4] | cell viability [5] | cell viability [6] | cell viability [7] | cell viability [8] | cell viability [9] | cell viability [10] | cell viability [11] | cell viability [12] | cell viability [13] | cell viability [14] | cell viability [15] | cell viability [16] | cell viability [17] | cell viability [18] | cell viability [19] | cell viability [20] | cell viability [21] | cell viability [22] | cell viability [23] | cell viability [24] | cell viability [25] | cell viability [26] | cell viability [27] | cell viability [28] | cell viability [29] | cell viability [30] | cell viability [31] | cell viability [32] | cell viability [33]
1 | CC1(C)CC\C2=C(/O1)C3=C(C=CC=C3)C(=O)C2=O | 123% | 112% | 113% | 101% | 112% | 104% | 103% | 118% | 99% | 98.4% | 4.14% | 113% | 104% | 115% | 103% | 108% | 111% | 90.9% | 107% | 108% | 88.2% | 5.12% | 109% | 97.4% | 109% | 113% | 103% | 102% | 101% | 99.9% | 100% | 96.3% | 6.57%
2 | Oc1cc(-c2nc(-c3ccccc3)[nH]c2-c2ccncc2)ccc1Cl | 111% | 119% | 119% | 112% | 123% | 120% | 108% | 84.2% | 78.8% | 49.2% | 21.4% | 106% | 104% | 107% | 107% | 121% | 103% | 109% | 102% | 107% | 87.1% | 32.2% | 101% | 107% | 121% | 107% | 123% | 109% | 104% | 92.1% | 81.3% | 74.8% | 32%
3 | C=CC(=O)Nc1cccc(Sc2nc(Nc3ccc(N4CCN(C)CC4)cc3)ncc2Cl)c1 | 102% | 103% | 101% | 104% | 110% | 109% | 127% | 114% | 117% | 98.5% | 24.9% | 97.3% | 104% | 121% | 104% | 101% | 120% | 109% | 116% | 113% | 119% | 8.7% | 95.4% | 101% | 97.1% | 92.1% | 112% | 93% | 98.2% | 97.5% | 107% | 107% | 11.6%
4 | CC1(C)SCCN([S+](=O)([O-])c2ccc(OCC#CCO)cc2)[C@H]1C(=O)NO | 121% | 108% | 102% | 101% | 124% | 126% | 115% | 112% | 99.6% | 107% | 83.7% | 105% | 88.3% | 99.4% | 95.8% | 104% | 93% | 93.9% | 87.5% | 77.5% | 77.4% | 82.4% | 96.3% | 94.8% | 103% | 90.2% | 89.7% | 98.5% | 84.1% | 94.3% | 97.3% | 95.6% | 93.3%
5 | CCCOc1ccc(C(=O)OCCN(CC)CC)cc1N | 109% | 124% | 124% | 121% | 140% | 130% | 132% | 139% | 121% | 112% | 106% | 107% | 115% | 122% | 123% | 107% | 120% | 113% | 111% | 123% | 118% | 118% | 111% | 127% | 115% | 118% | 120% | 128% | 121% | 119% | 117% | 131% | 121%
6 | CN(C)C/C=C/C(=O)Nc1ccc(C(=O)Nc2cccc(Nc3ncc(Cl)c(-c4c[nH]c5ccccc45)n3)c2)cc1 | 78.8% | 99.4% | 101% | 94.6% | 88.4% | 85.2% | 5.25% | 4.49% | 4.42% | 3.89% | 3.78% | 81.9% | 91.4% | 84.4% | 93.8% | 93.5% | 98.7% | 5.96% | 4.95% | 4.62% | 3.68% | 3.47% | 80% | 87.7% | 91.2% | 94.7% | 95% | 73.9% | 3.8% | 3.8% | 3.2% | 2.9% | 3.15%
7 | Oc1ccc(OCc2ccccc2)cc1 | 108% | 131% | 116% | 106% | 132% | 108% | 102% | 107% | 105% | 79.7% | 48.6% | 119% | 113% | 127% | 120% | 114% | 127% | 105% | 104% | 101% | 110% | 87.8% | 110% | 116% | 105% | 112% | 108% | 106% | 114% | 113% | 116% | 89.9% | 60.7%
